Target: Mitogen-activated protein kinase kinase kinase kinase 1 (Homo sapiens, UniProt Q92918)
Test: Binding Assay
Description: Lanth: For the binding assay, 4 ul 2×HPK1 and Eu-anti-GST antibody were added to each well of the assay plate using a Multidrop reagent dispenser. The solutions were incubated in a 23 C incubator for 1 h. To each well of the assay plate was added 4 ul 2× Tracer-222 using a Multidrop reagent dispenser. The solutions were again incubated in a 23 C incubator for 1 h. The results of the assay were read using an Envision plate reader with the following parameters: TR_FRET, 340ex/615 and 665em; 100 usec Delay; and 200 usec integration.

Sequence of Mitogen-activated protein kinase kinase kinase kinase 1 (Q92918 whole entry): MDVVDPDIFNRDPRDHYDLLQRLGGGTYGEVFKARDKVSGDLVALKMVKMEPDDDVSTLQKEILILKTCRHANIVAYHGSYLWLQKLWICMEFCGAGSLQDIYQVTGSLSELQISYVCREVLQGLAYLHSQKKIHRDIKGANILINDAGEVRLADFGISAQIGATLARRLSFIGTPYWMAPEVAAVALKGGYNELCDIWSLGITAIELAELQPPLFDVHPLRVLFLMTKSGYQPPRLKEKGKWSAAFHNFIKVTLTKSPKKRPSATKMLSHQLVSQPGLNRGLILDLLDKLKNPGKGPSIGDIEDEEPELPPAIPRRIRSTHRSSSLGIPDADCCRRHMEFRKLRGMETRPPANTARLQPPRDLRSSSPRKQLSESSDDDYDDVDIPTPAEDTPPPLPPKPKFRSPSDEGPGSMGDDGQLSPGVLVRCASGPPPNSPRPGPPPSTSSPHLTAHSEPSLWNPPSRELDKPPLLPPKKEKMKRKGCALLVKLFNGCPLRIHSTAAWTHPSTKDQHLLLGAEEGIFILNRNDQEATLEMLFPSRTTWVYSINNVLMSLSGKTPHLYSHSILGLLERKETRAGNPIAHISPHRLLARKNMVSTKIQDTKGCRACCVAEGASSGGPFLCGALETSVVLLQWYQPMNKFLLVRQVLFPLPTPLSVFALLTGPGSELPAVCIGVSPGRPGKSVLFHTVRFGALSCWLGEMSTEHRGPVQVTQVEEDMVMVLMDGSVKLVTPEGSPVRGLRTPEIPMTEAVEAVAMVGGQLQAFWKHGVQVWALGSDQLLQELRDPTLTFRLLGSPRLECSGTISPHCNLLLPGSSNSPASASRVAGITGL

Ki: 2.87 nM
SMILES: Cn1cc(-c2cc3cc(NC(=O)[C@H]4C[C@H]4F)ncc3c(N)n2)cn1 [US11034692, Compound 4]

Source: BindingDB's records for patent US11034692 (Genentech, 2021)
